# How the values were obtained:
# Assay type in all cases: cell-based
# HuH7 = experiment: CellTiter-Glo luminescent cell viability (proliferation) assay, HuH7; settings: inhibition of HuH7 (human hepatoma) proliferation, 48 hours incubation, 10% FCS
# Method: (§1) To practically assess the impact of the thiazole-piperidine derivatives, e.g. derivatives of piperidinyl-thiazole carboxylic acid and/or piperidinyl thiazole carboxamide, in the treatment and/or prevention of diseases according to the invention, the inhibition of cell proliferation is determined by using a luminescent cell viability assay (CellTiter-Glo®; Promega, Madison, USA). The assay is based on the relation that the ATP content is directly proportional to the number of cells present in the culture. The CellTiter-Glo® assay is performed to measure the proliferation rate of human hepatoma (HuH7, PLC/PRF/5, Hep3B, SK-Hep1), human hepatoblastoma (HepG2), human colon carcinoma (CX-2), human breast cancer (SK-Br-3), human ovarian carcinoma (HeLa) and human pancreatic carcinoma (DAN-G) cell lines. […] In particular, the compound according to formula (1) wherein R^1 is 4-isopropoxycarbonylphenyl, R^2 is 3-indolylmethyl, R^3 is hydrogen, R^4 is hydrogen, n is zero, A is a single bond, B is carbonyl, and wherein the residue R^1NR^3CO is connected to the carbon atom bound to nitrogen of the thiazole ring (compound no. XI in Table 1) inhibits proliferation of the human cell lines HepG2 and Hep3B with 10.8 and 3.5 µM, respectively.
# (§2) To determine the inhibition of cell proliferation a luminescent cell viability assay (CellTiter-Glo®; Promega, Madison, USA) is implemented. The assay is based on the relation that the ATP content is directly proportional to the number of cells present in the culture (Technical Bulletin No. 228 "CellTiter-Glo® Luminescent Cell viability Assay", Revised 2/04. Promeg, Madison, USA). The CellTiter-Glo® assay is performed to measure the proliferation rate of human hepatoma (HuH7, PLC/PRF/5, Hep3B, SK-Hep1), human hepatoblastoma (HepG2), human colon carcinoma (CX-2), human breast cancer (SK-Br-3), human ovarian carcinoma (HeLa) and human pancreatic carcinoma (DAN-G) cell lines. 3000 viable cells (viability ≥ 90%) are seeded in opaque-walled 96-well plates and incubated for 24 hours in DMEM, supplemented with 2 mM glutamin. Cell proliferation is stimulated by addition of FCS to a final concentration of 10% (v/v). Simultaneously the compounds (see Table 1 and 2) are added in a concentration range of 0 to 20 µM. Triplicates are measured for each concentration. Cells and compounds (see Table 1 and 2) are incubated for a period of 48 hours in a volume of 140 µl cell culture medium (10% (v/v) FCS, 2 mM Glutamin, DMEM). The compounds according to the invention are dissolved in 60% to 100% (v/v) DMSO at a concentration of 2 mM. The final DMSO concentration under assay conditions never exceeds 1% (v/v). Throughout the assay cells are kept in a humidified incubator (95% rH) at 37°C and 5% CO2.
# (§3) The final cell number is determined after 48 hour of incubation. Therefore 140 µl CellTiter-Glo®Reagent is added in each well. The contents are mixed on an orbital shaker for 2 minutes at room temperature. After subsequent incubation for additional 10 minutes at room temperature the luminescence signal is recorded within 30 min. EC50 values are calculated using the four-parametric Hill equation (Sigma Plot). Control values are: • 1) 10% (v/v) FCS, 2 mM glutamin, DMEM -> maximum cell number • 2) 2 mM glutamin, DMEM -> initial cell number
# DAN-G = experiment: CellTiter-Glo luminescent cell viability (proliferation) assay, DAN-G; settings: DAN-G (human pancreatic carcinoma) proliferation, 48 hours incubation, 10% FCS
# Method: as §1, §2, §3
# CX-2 = experiment: CellTiter-Glo luminescent cell viability (proliferation) assay, CX-2; settings: CX-2 (human colon carcinoma) proliferation, 48 hours incubation, 10% FCS
# Method: as §1, §2, §3
# HeLa = experiment: CellTiter-Glo luminescent cell viability (proliferation) assay, HeLa; settings: Hela (human ovarian carcinoma [sic]) proliferation, 48 hours incubation, 10% FCS
# Method: as §1, §2, §3
# SK-Br-3 = experiment: CellTiter-Glo luminescent cell viability (proliferation) assay, SK-Br-3; settings: Sk-Br-3 (human breast cancer) proliferation, 48 hours incubation, 10% FCS
# Method: as §1, §2, §3
# HepG2 = experiment: CellTiter-Glo luminescent cell viability (proliferation) assay, HepG2; settings: HepG2 (human hepatoblastoma), 48 hours incubation, 10% FCS; read-out: inhibits proliferation
# Method: (§4) To practically assess the impact of the thiazole-piperidine derivatives, e.g. derivatives of piperidinyl-thiazole carboxylic acid and/or piperidinyl thiazole carboxamide, in the treatment and/or prevention of diseases according to the invention, the inhibition of cell proliferation is determined by using a luminescent cell viability assay (CellTiter-Glo®; Promega, Madison, USA). The assay is based on the relation that the ATP content is directly proportional to the number of cells present in the culture. The CellTiter-Glo® assay is performed to measure the proliferation rate of human hepatoma (HuH7, PLC/PRF/5, Hep3B, SK-Hep1), human hepatoblastoma (HepG2), human colon carcinoma (CX-2), human breast cancer (SK-Br-3), human ovarian carcinoma (HeLa) and human pancreatic carcinoma (DAN-G) cell lines. […]
# (§5) To determine the inhibition of cell proliferation a luminescent cell viability assay (CellTiter-Glo®; Promega, Madison, USA) is implemented. […] Triplicates are measured for each concentration. […]
# (§6) The final cell number is determined after 48 hour of incubation. […] After subsequent incubation for additional 10 minutes at room temperature the luminescence signal is recorded within 30 min. EC50 values are calculated using the four-parametric Hill equation (Sigma Plot). […]
# Hep3B = experiment: CellTiter-Glo luminescent cell viability (proliferation) assay, Hep3B; settings: Hep3B (human hepatoma), 48 hours incubation, 10% FCS; read-out: inhibits proliferation
# Method: as §4, §5, §6
SMILES,"EC50 (HuH7; Homo sapiens, Huh-7, 48 h) [µM]",EC50 (DAN-G) [µM],EC50 (CX-2) [µM],EC50 (HeLa) [µM],EC50 (SK-Br-3) [µM],EC50 (HuH7; Huh-7) [µM],EC50 (HepG2) [µM],EC50 (Hep3B) [µM]
O=C(Nc1ccc2ncccc2c1)c1csc(C2CCN(C(=O)CC3C=Nc4ccccc43)CC2)n1 (stereo not drawn) [III],1.39,1.99,9.3,3.95,7.07,,,
O=C(Nc1ccc(F)c([N+](=O)[O-])c1)c1csc(C2CCN(C(=O)Cc3c[nH]c4ccccc34)CC2)n1 [II],,3.16,> 20,12.1,10.4,3.42,,
COc1ccc(CNC(=O)c2csc(C3CCN(C(=O)CC4C=Nc5ccccc54)CC3)n2)cc1OC (stereo not drawn) [IV],3.76,7.52,> 20,10.3,> 20,,,
O=C(CC1C=Nc2ccccc21)N1CCC(c2nc(C(=O)N3CCN(c4ncccn4)CC3)cs2)CC1 (stereo not drawn) [LIII],1.63,18.2,> 20,23.6,19.5,,,
COc1ccc(C(=O)N2CCC(c3nc(C(=O)Nc4cc(-c5ccco5)n[nH]4)cs3)CC2)c(OC)c1OC [LVI],3.6,16.9,> 20,10.5,> 20,,,
Cn1nc(-c2ccccc2)cc1NC(=O)c1csc(C2CCN(C(=O)Cc3c[nH]c4ccccc34)CC2)n1 [VII],,7.1,> 20,12.5,10.8,3.38,,
CC(C)(Cc1ccc(F)cc1)NC(=O)c1csc(C2CCN(C(=O)CC3C=Nc4ccccc43)CC2)n1 (stereo not drawn) [VI],4.81,11.2,19.2,13.5,10.4,,,
Cc1ccc2cc(NC(=O)c3csc(C4CCN(C(=O)CC5C=Nc6ccccc65)CC4)n3)ccc2n1 (stereo not drawn) [V],4.68,6.9,> 20,8.79,10.8,,,
"CC(C)OC(=O)c1ccc(NC(=O)c2csc(C3CCN(C(=O)CC4C=Nc5ccccc54)CC3)n2)cc1 (stereo not drawn) [XI, 2-[1-{indol-3-yl-methylcarboxyl}piperidine-4-yl]-thiazole-4-yl-caboxylic acid (4-isoproxycarboxy-phenyl) amide]",0.36,7.63,22.3,26.3,10.2,,10.8,3.5
COc1ccc(NC(=O)c2csc(C3CCN(C(=O)NC4C=C(c5ccccc5)N=N4)CC3)n2)cn1 (stereo not drawn) [XIII],5.3,8.9,> 20,10.1,12.3,,,
O=C(NC1CCc2ccccc21)c1csc(C2CCN(C(=O)CC3C=Nc4ccccc43)CC2)n1 (stereo not drawn) [XLVII],9.15,9.7,19.9,13.6,11.2,,,
O=C(NCc1ccccc1[N+](=O)[O-])c1csc(C2CCN(C(=O)Cc3c[nH]c4ccccc34)CC2)n1 [XL],,9.01,14.9,22.9,23.8,2.98,,
Cc1nc(NC(=O)c2csc(C3CCN(C(=O)Cc4c[nH]c5ccccc45)CC3)n2)sc1C [XVII],,5.59,> 20,23.5,18.9,,,
Cc1nc(C)c(C(=O)N2CCC(c3nc(C(=O)NC4C=C(c5cccs5)N=N4)cs3)CC2)s1 (stereo not drawn) [XVI],,7.99,> 20,10.5,> 20,,,
Cc1ccc(NC(=O)c2csc(C3CCN(C(=O)CC4C=Nc5ccccc54)CC3)n2)cc1F (stereo not drawn) [XV],1.64,3.81,10.9,17.2,10.8,,,
O=C(Nc1ccc(F)c(F)c1)c1csc(C2CCN(C(=O)CC3C=Nc4ccccc43)CC2)n1 (stereo not drawn) [XXIV],0.25,2.55,10.3,8.91,16.6,,,
Cc1ccc(S(=O)(=O)N2CCC(c3nc(C(=O)Nc4nnc(C(F)(F)F)s4)cs3)CC2)cc1Cl [XXVI],1.15,13.5,20.2,11.1,19.3,,,
O=C(Nc1cc(-c2cccs2)n[nH]1)c1csc(C2CCN(C(=O)N3CCN(c4ccccn4)CC3)CC2)n1 [XXXIII],3.23,13.8,> 20,11.6,> 20,,,
COc1ccc(C(N)=O)cc1NC(=O)c1csc(C2CCN(C(=O)Cc3ccccc3Cl)CC2)n1 [XXXIV],4.24,,,,,,,
COc1ccc(C(=O)N2CCC(c3nc(C(=O)Nc4cc(-c5cccs5)n[nH]4)cs3)CC2)c(OC)c1OC [XXXIX],,,,,,2.19,,
C=CCSc1ncccc1C(=O)N1CCC(c2nc(C(=O)Nc3cc(-c4ccccc4)nn3C)cs2)CC1 [XXXI],0.5,3.58,10.4,20.5,10.2,,,
COc1cccc(CCNC(=O)c2csc(C3CCN(C(=O)CC4C=Nc5ccccc54)CC3)n2)c1 (stereo not drawn) [XXXVIII],20.6,,,,,,,
Cc1cc(Cl)ccc1CNC(=O)c1csc(C2CCN(C(=O)CC3C=Nc4ccccc43)CC2)n1 (stereo not drawn) [XXXVI],3.95,,,,,,,
Cc1nc(C)c(C(=O)N2CCC(c3nc(C(=O)Nc4cc(-c5cccs5)nn4C)cs3)CC2)s1 [XXXV],3.5,,,,,,,
C=CCSc1ncccc1C(=O)N1CCC(c2nc(C(=O)Nc3cc(C(C)(C)C)n[nH]3)cs2)CC1 [XXX],4.2,,,,,,,
COc1ccc(C(=O)N2CCC(c3nc(C(=O)NC4C=C(c5ccccc5)N=N4)cs3)CC2)c(OC)c1OC (stereo not drawn) [XX],5.31,7.8,> 20,10.3,19.7,,,
O=C(Nc1nccs1)c1csc(C2CCN(C(=O)Cc3c[nH]c4ccccc34)CC2)n1 [X],,2.53,> 20,18,18.9,1.54,,

# — patent EP1832586A1, “Thiazole-piperidine derivatives in treatment of diseases of liver and the pancreas” (Oridis Biomed Forschungs- und Entwicklungs GmbH, priority 2006, dated 2007)
